Results published in ChEMBL document CHEMBL3991601, “The target landscape of clinical kinase drugs” (Science, 2017).
Active and inactive are the calls of the source.

Legend:
[1] = molecular target: DnaJ homolog subfamily A member 1 (Homo sapiens, UniProt P31689)
Ephrin type-B receptor 6 = molecular target: T1, Ephrin type-B receptor 6 (Homo sapiens, UniProt O15197)
T1 sequence (O15197 whole entry): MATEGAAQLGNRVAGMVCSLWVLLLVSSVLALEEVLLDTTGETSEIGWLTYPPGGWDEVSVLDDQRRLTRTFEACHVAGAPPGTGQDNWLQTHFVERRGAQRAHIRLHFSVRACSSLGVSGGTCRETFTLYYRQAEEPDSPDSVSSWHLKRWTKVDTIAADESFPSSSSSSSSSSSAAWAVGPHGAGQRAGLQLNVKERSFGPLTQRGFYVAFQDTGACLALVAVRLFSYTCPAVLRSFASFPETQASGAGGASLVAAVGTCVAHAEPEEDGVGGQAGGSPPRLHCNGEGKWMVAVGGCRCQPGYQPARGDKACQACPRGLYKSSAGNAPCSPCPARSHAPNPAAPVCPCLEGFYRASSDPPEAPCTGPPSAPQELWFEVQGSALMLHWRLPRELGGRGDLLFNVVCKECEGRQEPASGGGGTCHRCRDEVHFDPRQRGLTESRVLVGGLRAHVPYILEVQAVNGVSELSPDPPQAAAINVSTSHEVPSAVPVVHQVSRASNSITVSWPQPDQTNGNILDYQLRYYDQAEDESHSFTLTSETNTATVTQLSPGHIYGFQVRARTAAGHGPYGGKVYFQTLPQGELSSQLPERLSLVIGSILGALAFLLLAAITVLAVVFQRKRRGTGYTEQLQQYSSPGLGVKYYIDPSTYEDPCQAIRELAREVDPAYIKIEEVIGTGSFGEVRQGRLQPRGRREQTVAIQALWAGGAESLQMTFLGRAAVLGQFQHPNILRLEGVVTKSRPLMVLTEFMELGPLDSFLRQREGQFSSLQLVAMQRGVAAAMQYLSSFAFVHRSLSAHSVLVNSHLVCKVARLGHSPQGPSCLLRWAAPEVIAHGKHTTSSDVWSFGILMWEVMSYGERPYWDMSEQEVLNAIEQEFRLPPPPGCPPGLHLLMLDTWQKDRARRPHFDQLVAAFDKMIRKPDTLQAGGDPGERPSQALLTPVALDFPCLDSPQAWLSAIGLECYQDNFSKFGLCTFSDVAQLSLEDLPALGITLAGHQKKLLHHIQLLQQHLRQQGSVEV

[2] = molecular target: T2, Interleukin-1 receptor-associated kinase 4 (Homo sapiens, UniProt Q9NWZ3)
T2 sequence (Q9NWZ3 whole entry): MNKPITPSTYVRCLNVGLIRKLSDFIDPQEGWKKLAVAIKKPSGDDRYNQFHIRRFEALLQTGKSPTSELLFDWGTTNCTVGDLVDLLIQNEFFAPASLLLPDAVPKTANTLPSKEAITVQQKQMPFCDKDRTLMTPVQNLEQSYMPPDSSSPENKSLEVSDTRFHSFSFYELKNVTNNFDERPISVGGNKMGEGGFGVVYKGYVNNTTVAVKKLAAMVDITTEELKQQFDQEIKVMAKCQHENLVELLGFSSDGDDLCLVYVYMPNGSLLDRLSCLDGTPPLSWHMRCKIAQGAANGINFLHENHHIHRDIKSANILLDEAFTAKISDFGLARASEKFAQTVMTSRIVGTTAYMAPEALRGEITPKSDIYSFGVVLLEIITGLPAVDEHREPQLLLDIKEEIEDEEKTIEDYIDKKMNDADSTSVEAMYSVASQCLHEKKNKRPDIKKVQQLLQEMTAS

Midasin = Midasin (Homo sapiens, UniProt Q9NU22)
[3] = molecular target: T3, Dynamin-like GTPase OPA1, mitochondrial (Homo sapiens, UniProt O60313)
T3 sequence (O60313 whole entry): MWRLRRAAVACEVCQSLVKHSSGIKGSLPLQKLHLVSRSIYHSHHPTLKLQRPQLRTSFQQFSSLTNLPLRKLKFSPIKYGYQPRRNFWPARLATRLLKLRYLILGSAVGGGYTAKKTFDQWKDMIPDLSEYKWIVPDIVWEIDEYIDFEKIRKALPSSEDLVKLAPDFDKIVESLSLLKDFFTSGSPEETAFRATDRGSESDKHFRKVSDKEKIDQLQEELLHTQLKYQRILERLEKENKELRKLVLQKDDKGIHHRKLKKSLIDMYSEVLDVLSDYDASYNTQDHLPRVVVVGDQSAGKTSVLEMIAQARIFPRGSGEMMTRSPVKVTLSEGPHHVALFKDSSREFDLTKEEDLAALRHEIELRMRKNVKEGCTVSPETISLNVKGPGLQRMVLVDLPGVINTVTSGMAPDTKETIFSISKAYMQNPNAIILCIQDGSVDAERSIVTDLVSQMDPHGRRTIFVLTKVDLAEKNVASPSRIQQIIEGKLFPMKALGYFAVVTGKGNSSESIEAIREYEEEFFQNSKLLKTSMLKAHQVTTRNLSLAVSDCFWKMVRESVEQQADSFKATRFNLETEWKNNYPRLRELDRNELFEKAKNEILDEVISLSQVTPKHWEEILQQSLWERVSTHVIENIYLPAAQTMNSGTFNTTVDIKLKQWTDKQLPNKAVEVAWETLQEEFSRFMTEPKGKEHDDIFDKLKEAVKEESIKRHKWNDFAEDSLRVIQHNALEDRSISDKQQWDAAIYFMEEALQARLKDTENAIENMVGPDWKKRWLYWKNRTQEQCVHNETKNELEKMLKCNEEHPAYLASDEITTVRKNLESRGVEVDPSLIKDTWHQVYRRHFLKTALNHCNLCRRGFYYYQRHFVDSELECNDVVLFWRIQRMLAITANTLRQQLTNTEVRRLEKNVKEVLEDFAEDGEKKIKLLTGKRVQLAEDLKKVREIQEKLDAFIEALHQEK

[4] = molecular target: cAMP-dependent protein kinase catalytic subunit alpha (Homo sapiens, UniProt P17612)
[5] = molecular target: T4, STE20-related kinase adapter protein alpha (Homo sapiens, UniProt Q7RTN6)
T4 sequence (Q7RTN6 whole entry): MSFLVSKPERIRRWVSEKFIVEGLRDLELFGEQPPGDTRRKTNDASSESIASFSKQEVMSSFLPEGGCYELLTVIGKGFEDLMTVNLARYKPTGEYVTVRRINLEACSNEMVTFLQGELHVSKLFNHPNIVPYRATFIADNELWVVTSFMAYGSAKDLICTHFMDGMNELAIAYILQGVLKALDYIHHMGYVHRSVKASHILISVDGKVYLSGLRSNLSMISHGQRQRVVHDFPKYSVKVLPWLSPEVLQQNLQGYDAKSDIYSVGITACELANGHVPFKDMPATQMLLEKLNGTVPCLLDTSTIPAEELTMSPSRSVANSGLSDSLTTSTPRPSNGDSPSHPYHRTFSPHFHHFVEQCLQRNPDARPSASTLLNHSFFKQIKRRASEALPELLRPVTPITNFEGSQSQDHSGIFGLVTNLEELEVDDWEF
Further: in the data inactive means no Kd found up to 30 µM.

Sequence of DnaJ homolog subfamily A member 1 (P31689 whole entry): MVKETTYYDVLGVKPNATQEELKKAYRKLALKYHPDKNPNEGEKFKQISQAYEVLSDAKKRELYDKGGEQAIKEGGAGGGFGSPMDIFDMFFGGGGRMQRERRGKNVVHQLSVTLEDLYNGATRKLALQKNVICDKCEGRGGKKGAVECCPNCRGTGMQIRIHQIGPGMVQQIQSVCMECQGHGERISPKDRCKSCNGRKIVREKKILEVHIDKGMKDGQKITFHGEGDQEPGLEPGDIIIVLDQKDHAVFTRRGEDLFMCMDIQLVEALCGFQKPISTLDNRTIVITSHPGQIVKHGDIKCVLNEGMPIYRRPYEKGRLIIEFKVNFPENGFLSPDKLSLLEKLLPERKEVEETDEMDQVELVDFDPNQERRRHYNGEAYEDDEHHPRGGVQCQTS

Row | SMILES | Kd [1] | Kd (Ephrin type-B receptor 6) | Kd [2] | Kd (Midasin) | Kd [3] | Kd [4] | Kd [5]
1 | CCN1CCN(Cc2ccc(Nc3ncc(F)c(-c4cc(F)c5nc(C)n(C(C)C)c5c4)n3)nc2)CC1 [ABEMACICLIB] | > 30 µM (inactive) | > 30 µM (inactive) | > 30 µM (inactive) | > 30 µM (inactive) | > 30 µM (inactive) | > 30 µM (inactive) | > 30 µM (inactive)
2 | Cc1c(NC(=O)OC[C@@H]2COCCN2)cn2ncnc(Nc3ccc4c(cnn4Cc4cccc(F)c4)c3)c12 [AC-480] | > 30 µM (inactive) | > 30 µM (inactive) | > 30 µM (inactive) | > 30 µM (inactive) | > 30 µM (inactive) | > 30 µM (inactive) | > 30 µM (inactive)
3 | C=CCn1c(=O)c2cnc(Nc3ccc(N4CCN(C)CC4)cc3)nc2n1-c1cccc(C(C)(C)O)n1 [ADAVOSERTIB] | > 30 µM (inactive) | 0.337 µM (active) | > 30 µM (inactive) | > 30 µM (inactive) | > 30 µM (inactive) | > 30 µM (inactive) | > 30 µM (inactive)
4 | CCc1cc2c(cc1N1CCC(N3CCOCC3)CC1)C(C)(C)c1[nH]c3cc(C#N)ccc3c1C2=O [ALECTINIB] | > 30 µM (inactive) | > 30 µM (inactive) | > 30 µM (inactive) | > 30 µM (inactive) | > 30 µM (inactive) | > 30 µM (inactive) | > 30 µM (inactive)
5 | COc1ccc2c(OCc3nnc4ccc(-c5ccccc5)nn34)ccnc2c1 [AMG-208] | > 30 µM (inactive) | > 30 µM (inactive) | > 30 µM (inactive) | > 30 µM (inactive) | > 30 µM (inactive) | > 30 µM (inactive) | > 30 µM (inactive)
6 | S=C(NCc1ccc2c(c1)OCO2)N1CCN(c2ncnc3c2oc2ccccc23)CC1 [AMUVATINIB] | > 30 µM (inactive) | > 30 µM (inactive) | > 30 µM (inactive) | > 30 µM (inactive) | > 30 µM (inactive) | > 30 µM (inactive) | > 30 µM (inactive)
7 | NC[C@@](O)(c1ccc(Cl)cc1)c1ccc(-c2cn[nH]c2)cc1 [AT-13148] | > 30 µM (inactive) | > 30 µM (inactive) | > 30 µM (inactive) | > 30 µM (inactive) | > 30 µM (inactive) | 0.015 µM (active) | > 30 µM (inactive)
8 | Cc1cc(Nc2nc(N[C@@H](C)c3ncc(F)cn3)ncc2Cl)n[nH]1 [AZD-1480] | > 30 µM (inactive) | > 30 µM (inactive) | > 30 µM (inactive) | > 30 µM (inactive) | > 30 µM (inactive) | > 30 µM (inactive) | 0.316 µM
9 | COc1ccc(-c2ccc3ncc4c(c3c2)n(-c2ccc(N3CCNCC3)c(C(F)(F)F)c2)c(=O)n4C)cn1 [BGT-226 FREE BASE] | > 30 µM (inactive) | > 30 µM (inactive) | > 30 µM (inactive) | > 30 µM (inactive) | > 30 µM (inactive) | > 30 µM (inactive) | > 30 µM (inactive)
10 | COc1cccc(Nc2ncnn3ccc(CN4CC[C@@H](N)[C@H](O)C4)c23)c1 [BMS-690514] | > 30 µM (inactive) | > 30 µM (inactive) | > 30 µM (inactive) | > 30 µM (inactive) | > 30 µM (inactive) | 0.916 µM (active) | > 30 µM (inactive)
11 | COc1cc2nccc(Oc3ccc(NC(=O)C4(C(=O)Nc5ccc(F)cc5)CC4)cc3)c2cc1OC [CABOZANTINIB] | > 30 µM (inactive) | > 30 µM (inactive) | > 30 µM (inactive) | > 30 µM (inactive) | > 30 µM (inactive) | > 30 µM (inactive) | > 30 µM (inactive)
12 | c1cc(OCCN2CCCCC2)cc(-c2n[nH]c3ccc(-c4nc[nH]n4)cc23)c1 [CC-401] | > 30 µM (inactive) | > 30 µM (inactive) | > 30 µM (inactive) | > 30 µM (inactive) | > 30 µM (inactive) | > 30 µM (inactive) | > 30 µM (inactive)
13 | COc1cc2ncnc(Nc3ccc(F)c(Cl)c3)c2cc1NC(=O)/C=C/CN1CCCCC1 [DACOMITINIB ANHYDROUS] | > 30 µM (inactive) | > 30 µM (inactive) | > 30 µM (inactive) | > 30 µM (inactive) | > 30 µM (inactive) | > 30 µM (inactive) | > 30 µM (inactive)
14 | CC[C@@](C)(Nc1ccnc(-c2c[nH]c3ncccc23)n1)C(=O)NCC(F)(F)F [DECERNOTINIB] | > 30 µM (inactive) | > 30 µM (inactive) | > 30 µM (inactive) | > 30 µM (inactive) | > 30 µM (inactive) | > 30 µM (inactive) | > 30 µM (inactive)
15 | CNC(=O)c1ccc(Nc2ncc(C(F)(F)F)c(NCc3nccnc3N(C)S(C)(=O)=O)n2)cc1 [DEFACTINIB] | > 30 µM (inactive) | > 30 µM (inactive) | > 30 µM (inactive) | > 30 µM (inactive) | > 30 µM (inactive) | > 30 µM (inactive) | > 30 µM (inactive)
16 | COc1cc(Nc2ncc(F)c(Nc3ccc4c(n3)N(COP(=O)(O)O)C(=O)C(C)(C)O4)n2)cc(OC)c1OC [FOSTAMATINIB] | > 30 µM (inactive) | > 30 µM (inactive) | > 30 µM (inactive) | > 30 µM (inactive) | > 30 µM (inactive) | > 30 µM (inactive) | > 30 µM (inactive)
17 | Cc1c(Cn2c(C)nc3c(C(=O)O)cc(N4CCOCC4)cc32)cccc1C(F)(F)F [GSK-2636771] | > 30 µM (inactive) | > 30 µM (inactive) | > 30 µM (inactive) | > 30 µM (inactive) | > 30 µM (inactive) | > 30 µM (inactive) | > 30 µM (inactive)
